These results are taken from patent US5185442A, “New diazepines substituted in the 6-position, processes for their preparation and their use as pharmaceutical compositions” (Boehringer Ingelheim KG, priority 1991, dated 1993).

pKi: −log10 of the molar value.

The target of this test is T1, PAF receptor (vital human blood platelets) (Homo sapiens, UniProt P25105).
T1 construct: endogenous in cells; host or cells: vital human blood platelets (thrombocytes) from blood samples of healthy donors, purified on Sepharose CL-2B
T1 sequence (P25105 whole entry): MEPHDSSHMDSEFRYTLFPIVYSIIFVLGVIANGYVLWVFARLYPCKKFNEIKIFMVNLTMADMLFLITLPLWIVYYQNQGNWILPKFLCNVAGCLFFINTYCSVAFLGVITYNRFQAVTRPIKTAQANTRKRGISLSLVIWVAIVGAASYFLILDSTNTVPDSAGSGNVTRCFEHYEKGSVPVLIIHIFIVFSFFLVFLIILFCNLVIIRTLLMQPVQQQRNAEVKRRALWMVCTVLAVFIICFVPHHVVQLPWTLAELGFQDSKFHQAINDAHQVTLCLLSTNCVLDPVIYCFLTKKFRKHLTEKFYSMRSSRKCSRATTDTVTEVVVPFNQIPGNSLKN
Kind of test: [3H]PAF receptor binding to vital human blood platelets. To be noted: [3H]PAF 30 pmolar, 90 minutes, ambient temperature, Ki calculated from IC50. The procedure:
[^3 H]PAF receptor binding to vital human blood platelets
This experiment determined the competitive interaction of the test substances (in this case PAF-antagonists) with the known interaction of the radioligand [^3 H]PAF to the same receptor.
The bonding studies were carried out on vital human thrombocytes. Blood samples from healthy donors were diluted with ACD buffer and centrifuged (15 minutes, 160×g). The platelet-rich plasma was purified by chromatography on Sepharose CL-2B (for eluting: HEPES buffer, pH 7.4, 20° C.).
Defined quantities (e.g., 800 μl) of the platelet suspension were incubated for 90 minutes at ambient temperature with:
a) a 30 pmolar [^3 H]PAF solution diluted with buffer;
b) a 30 pmolar [^3 H]PAF solution which simultaneously contains a μmolar (non-labelled) PAF solution; and
c) a 30 pmolar [^3 H]PAF solution and the solutions of the test substances (different concentrations).
Incubation a) was used to determine total binding. Incubation b) was used to determine non-specific binding.
The reaction was stopped by vacuum filtering. The filters with the blood platelets were mixed with scintillation liquid and the residual radioactivity was measured in a counter. The specific binding was obtained from the total binding minus the non-specific binding. […]

`Cc1nnc2n1-c1sc3c(c1C(c1ccc(CCc4ccc(C(F)(F)F)cc4)cc1)=NC2C)CCC3` (racemic) [Compound 1]: the pKi (usually −log10 of the Ki, conventionally taken in molar units) is 9.10.
In the case of `Cc1nnc2n1-c1sc3c(c1C(c1ccc(CCc4ccc(C(F)(F)F)cc4)cc1)=N[C@H]2C)CCC3` [Compound 2], the pKi is 9.33.
